Experimental data reported in patent US8476253B2, “Amide derivative” (Daiichi Sankyo Company, Limited, priority 2009, dated 2013).
Counter-ions that a name gives are not always drawn. Like-named read-outs stand apart in the source and are kept apart here.

Assays:
[1] = target: T1, substance P receptor (Cavia porcellus, UniProt P30547); experiment: Test for binding to guinea-pig substance P receptor (crude lung membrane sample); settings: crude guinea-pig lung membrane sample, [3H]substance P; Ki from IC50 and Kd; read-out: Ki
T1 construct: A preparation of a crude lung membrane sample was prepared; from tissue; host or cells: guinea-pig lung (crude membrane sample)
Protocol: A preparation of a crude lung membrane sample was prepared, and a test for binding of a test substance to the sample was performed according to the method described in EP0336230A2.
The binding effect of the test substance to a substance P receptor was calculated as an affinity (Ki) of the test substance for the substance P receptor from a 50% binding concentration (IC50) and an affinity (Kd) of [^3H]substance P for the substance P receptor.

[2] = target: T2, human NK2 receptor (Homo sapiens, UniProt P21452); experiment: Test for binding to human NK2 receptor
T2 construct: expressed in transfected cells; host or cells: COS cells
T2 sequence (P21452 1-398): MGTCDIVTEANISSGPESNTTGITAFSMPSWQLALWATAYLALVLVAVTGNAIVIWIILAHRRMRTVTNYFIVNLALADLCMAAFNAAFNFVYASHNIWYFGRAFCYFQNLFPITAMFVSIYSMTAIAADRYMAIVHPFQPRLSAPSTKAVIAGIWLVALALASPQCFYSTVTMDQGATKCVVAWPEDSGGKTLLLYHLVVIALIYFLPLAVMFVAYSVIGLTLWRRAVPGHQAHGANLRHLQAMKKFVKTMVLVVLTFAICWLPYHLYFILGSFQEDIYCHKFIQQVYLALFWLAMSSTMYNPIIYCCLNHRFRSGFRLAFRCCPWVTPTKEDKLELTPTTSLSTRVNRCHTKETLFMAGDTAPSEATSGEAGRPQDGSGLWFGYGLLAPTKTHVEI
Protocol: A solution of cryopreserved COS cells expressing human NK2 receptor was diluted with a buffer (50 mM tris-hydrochloride containing 0.04% of bovine serum albumin [BSA], pH 7.4) to obtain a concentration of 5.0×10^5 cells/mL and used as a crude membrane sample.
[^3H]SR 48968 (GE Healthcare Japan Corporation) was diluted with a mixture of 50 mM of tris-hydrochloride (pH 7.4), 6 mM of manganese chloride tetrahydrate, 800 μg/mL of BSA, 8 μg/mL of chymostatin, 8 μg/mL of leupeptin, 80 μg/mL of bacitracin, and 20 μg/mL of phosphoramidon. […] After the reaction, the membrane components were collected on a GF/B glass fiber filter paper (Whatman; Biomedical Research and Development Laboratories, Inc.) with an automated filtration system (Brandel; Biomedical Research and Development Laboratories, Inc.). The glass fiber filter paper was pretreated with a 0.1% polyethylenimine solution for 4 hours or longer to minimize non-specific binding. The filter collecting the membrane components was transferred to a small-size plastic vial containing 3 mL of Pico-Fluor, and the radioactivity was measured with a liquid scintillation counter (Tri-Carb 2900TR or 2300TR; Perkin Elmer).
The effect of binding to the NK2 receptor was calculated as the affinity (Ki) of the test substance for the NK2 receptor from a 50% binding dose (IC50) and the affinity (Kd) of [^3H]SR 48968 for the NK2 receptor.

[3] = target: T3, human M3 receptor (Homo sapiens, UniProt P20309); experiment: Test for binding to human M3 receptor
T3 construct: expressed in transfected cells; host or cells: CHO cells
Protocol: A solution of cryopreserved CHO cells expressing human M3 receptor was diluted with a buffer (50 mM tris-hydrochloride containing 0.5 mM of EDTA, pH 7.4) to obtain 5.0×10^5 of cells/mL and used as a crude membrane sample.
[N-methyl-^3H]-(−)-Scopolamine methyl chloride (GE Healthcare Japan Corporation) was diluted with 50 mM of tris-hydrochloride containing 0.5 mM of EDTA (pH 7.4), a test substance and 250 μL of the crude membrane sample solution were added to 250 μL of the mixture, and the mixture was incubated at room temperature for 60 minutes. […] The glass fiber filter paper was pretreated with a 0.1% polyethylenimine solution for 4 hours or longer to minimize non-specific binding. The filter collecting membrane components was transferred to a small-size plastic vial containing 3 mL of Pico-Fluor, and the radioactivity was measured with a liquid scintillation counter (Tri-Carb 2900TR or 2300TR; Perkin Elmer).
The effect of binding to the M3 receptor was calculated as the affinity (Ki) of the test substance for the M3 receptor from a 50% binding dose (IC50) and the affinity (Kd) of [N-methyl-^3H]-(−)-Scopolamine methyl chloride for the M3 receptor.

[4] = system: muscarine M3 receptor; experiment: Effect of suppressing methacholine-induced airway contraction (in vivo, intratracheal administration); set-up: species or system guinea pig; settings: guinea pigs, intratracheal administration 60 minutes before 30 μg/kg i.v. methacholine; AUC of increase in airway pressure over 10 minutes
Protocol: Using healthy guinea pigs (body weight, 350 to 550 g; Hartley male guinea pigs), the effect of suppressing airway contraction induced by methacholine, which is a muscarine receptor agonist, was examined by a modified method of Konzett-Roessler (Naunyn-Schmiedebergs Arch. Exp. Pathol. Pharmakol. 195, 71 [1940]) using airway pressure as an indicator.
A tracheal cannula and a venous cannula were attached to a guinea pig anesthetized with pentobarbital (50 mg/mL of solution, 0.40 to 0.50 mL/body, subcutaneous administration). An arterial cannula filled with heparin-containing physiological saline (100 U/mL) was further attached, and blood pressure and heart rate were monitored via an amplifier and an instantaneous heart rate meter. Subsequently, gallamine (20 mg/body, intravenous administration) was administered to terminate spontaneous breathing, and then 10 mL/kg of positive pressure breathing (Ugo-Basile Biological Research Apparatus, Cat. No. 7025) was rapidly performed at 60 times/min. The airway pressure during artificial breathing was detected with a pressure transducer (TP-200T or TP-400T; Nihon Kohden Corporation) attached to a side branch of the tracheal cannula, amplified (AP-601G; Nihon Kohden Corporation), and recorded in a recorder. After the airway pressure, blood pressure, and heart rate were stabilized, 30 μg/kg of methacholine was intravenously administered from the venous cannula to induce airway contraction, and the airway pressure was measured for the following 10 minutes.
A test substance was dissolved in 5% glucose solution, and a 0.5 mL/kg solution was administered intratracheally with an intratracheal administration apparatus (model 1A-1B; Penn-Century, Inc.) 60 minutes before stimulation with methacholine.
The AUC of increase in the airway pressure over 10 minutes after administration of methacholine was measured as the intensity of methacholine-induced airway contraction and calculated as an ID50 value from the inhibition rate based on the value of the control group (a 5% glucose solution intratracheal administration group).

[5] = COS cells expressing human NK2 receptor, [3H]SR 48968 1 nM, Ki from IC50 and Kd, read-out: Ki
[6] = CHO cells expressing human M3 receptor, [N-methyl-3H]-(-)-Scopolamine methyl chloride 0.5 nM, Ki from IC50 and Kd, read-out: Ki

T1 sequence (P30547 whole entry): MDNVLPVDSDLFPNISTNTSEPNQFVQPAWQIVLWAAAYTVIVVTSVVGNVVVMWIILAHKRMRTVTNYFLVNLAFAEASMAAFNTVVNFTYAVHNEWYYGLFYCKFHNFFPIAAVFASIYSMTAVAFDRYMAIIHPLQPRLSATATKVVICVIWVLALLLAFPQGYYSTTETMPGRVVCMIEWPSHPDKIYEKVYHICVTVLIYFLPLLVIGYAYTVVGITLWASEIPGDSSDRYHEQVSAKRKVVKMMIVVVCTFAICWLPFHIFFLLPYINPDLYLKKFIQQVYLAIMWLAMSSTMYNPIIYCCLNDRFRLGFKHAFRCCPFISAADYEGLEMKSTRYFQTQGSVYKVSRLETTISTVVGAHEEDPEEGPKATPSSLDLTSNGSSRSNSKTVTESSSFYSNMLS
T3 sequence (P20309 whole entry): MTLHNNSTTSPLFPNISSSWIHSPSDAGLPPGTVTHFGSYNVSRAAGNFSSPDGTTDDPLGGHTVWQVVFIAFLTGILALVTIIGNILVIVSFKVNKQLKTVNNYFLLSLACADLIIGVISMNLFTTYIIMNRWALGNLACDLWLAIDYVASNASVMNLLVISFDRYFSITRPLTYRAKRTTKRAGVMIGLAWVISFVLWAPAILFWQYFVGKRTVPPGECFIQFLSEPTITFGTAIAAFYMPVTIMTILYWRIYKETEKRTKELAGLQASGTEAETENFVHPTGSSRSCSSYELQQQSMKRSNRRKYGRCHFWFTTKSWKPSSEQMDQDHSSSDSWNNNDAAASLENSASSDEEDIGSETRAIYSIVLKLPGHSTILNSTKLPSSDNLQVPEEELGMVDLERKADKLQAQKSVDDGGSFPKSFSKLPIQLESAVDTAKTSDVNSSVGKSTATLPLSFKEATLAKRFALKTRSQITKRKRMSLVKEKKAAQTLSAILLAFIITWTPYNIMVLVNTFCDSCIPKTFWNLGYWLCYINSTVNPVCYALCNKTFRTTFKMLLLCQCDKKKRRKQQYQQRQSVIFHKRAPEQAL

| Compound | Ki [1] | Ki [2, 5] | Ki [3, 6] | ID50 [4] | Ki [2] | Ki [3] |
| --- | --- | --- | --- | --- | --- | --- |
| CN(CCN1CCC(OC(=O)Nc2ccccc2-c2ccccc2)CC1)C(=O)CCCCCNc1ccc(C(=O)N(C)CCCN(C)C(=O)CO[C@H]2Cc3ccccc3C23CCN(CC[C@@]2(c4ccc(F)cc4)CN(C(=O)c4cc(C(F)(F)F)cc(C(F)(F)F)c4)CO2)CC3)s1 [Example 4, 1-(2-{[6-({5-[{3-[({[(2S)-1′-{2-[(5R)-3-[3,5-Bis(trifluoromethyl)benzoyl]-5-(4-fluorophenyl)-1,3-oxazolidin-5-yl]ethyl}-2,3-dihydrospiro[indene-1,4′-piperidin]-2-yl]oxy}acetyl)(methyl)amino]propyl}(methyl)carbamoyl]-2-thienyl}amino)hexanoyl](methyl)amino}ethyl)piperidin-4-yl biphenyl-2-ylcarbamate] | 1.8 nM | 0.62 nM | 2.1 nM | 0.0252 mg/kg |  |  |
| CN(CCN1CCC(OC(=O)Nc2ccccc2-c2ccccc2)CC1)C(=O)CCCCCNCc1ccc(C(=O)N(C)CCCN(C)C(=O)CO[C@H]2Cc3ccccc3C23CCN(CC[C@@]2(c4ccc(F)cc4)CN(C(=O)c4cc(C(F)(F)F)cc(C(F)(F)F)c4)CO2)CC3)cc1 [Example 75, 1-(2-{[6-({4-[{3-[({[(2S)-1-{2-[(5R)-3-[3,5-Bis(trifluoromethyl)benzoyl]-5-(4-fluorophenyl)-1,3-oxazolidin-5-yl]ethyl}-2,3-dihydrospiro[indene-1,4′-piperidin]-2-yl]oxy}acetyl)(methyl)amino]propyl}(methyl)carbamoyl]benzyl}amino)hexanoyl](methyl)amino}ethyl)piperidin-4-yl biphenyl-2-ylcarbamate] | 1 nM | 0.25 nM | 0.52 nM |  |  |  |
| CN(CCN1CCC(OC(=O)Nc2ccccc2-c2ccccc2)CC1)C(=O)CCCC1CCN(c2ccc(C(=O)N(C)CCCN(C)C(=O)CO[C@H]3Cc4ccccc4C34CCN(CC[C@@]3(c5ccc(F)cc5)CN(C(=O)c5cc(C(F)(F)F)cc(C(F)(F)F)c5)CO3)CC4)cc2)CC1 [Example 66, 1-(2-{[4-(1-{4-[{3-[({[(2S)-1′-{2-[(5R)-3-[3,5-Bis(trifluoromethyl)benzoyl]-5-(4-fluorophenyl)-1,3-oxazolidin-5-yl]ethyl}-2,3-dihydrospiro[indene-1,4′-piperidin]-2-yl]oxy}acetyl)(methyl)amino]propyl}methyl)carbamoyl]phenyl}piperidin-4-yl)butanoyl](methyl)amino}ethyl)piperidin-4-yl biphenyl-2-ylcarbamate trihydrochloride] | 2.1 nM | 0.86 nM | 1.5 nM |  |  |  |
| CN(CCN1CCC(OC(=O)Nc2ccccc2-c2ccccc2)CC1)C(=O)CCCCCCNc1ccc(C(=O)N(C)CCCN(C)C(=O)CO[C@H]2Cc3ccccc3C23CCN(CC[C@@]2(c4ccc(F)cc4)CN(C(=O)c4cc(C(F)(F)F)cc(C(F)(F)F)c4)CO2)CC3)cc1.Cl.Cl.Cl [Example 39, 1-(2-{[7-({4-[{3-[({[(2S)-1′-{2-[(5R)-3-[3,5-Bis(trifluoromethyl)benzoyl]-5-(4-fluorophenyl)-1,3-oxazolidin-5-yl]ethyl}-2,3-dihydrospiro[indene-1,4′-piperidin]-2-yl]oxy}acetyl)(methyl)amino]propyl}methyl)carbamoyl]phenyl}amino)heptanoyl](methyl)amino}ethyl)piperidin-4-yl biphenyl-2-ylcarbamate trihydrochloride] | 1.2 nM | 0.82 nM | 1.4 nM |  |  |  |
| CN(CCCCCC(=O)N(C)CCN1CCC(OC(=O)Nc2ccccc2-c2ccccc2)CC1)Cc1ccc(C(=O)N(C)CCCN(C)C(=O)CO[C@H]2Cc3ccccc3C23CCN(CC[C@@]2(c4ccc(F)cc4)CN(C(=O)c4cc(C(F)(F)F)cc(C(F)(F)F)c4)CO2)CC3)nc1 [Example 5, 1-{2-[{6-[({6-[{3-[({[(2S)-1′-{2-[(5R)-3-[3,5-Bis(trifluoromethyl)benzoyl]-5-(4-fluorophenyl)-1,3-oxazolidin-5-yl]ethyl}-2,3-dihydrospiro[indene-1,4′-piperidin]-2-yl]oxy}acetyl)(methyl)amino]propyl}(methyl)carbamoyl]pyridin-3-yl}methyl)(methyl)amino]hexanoyl}(methyl)amino]ethyl}piperidin-4-yl biphenyl-2-ylcarbamate] | 1.5 nM | 0.48 nM | 0.69 nM |  |  |  |
| Cc1nc(N(C)CCCCCC(=O)N(C)CCN2CCC(OC(=O)Nc3ccccc3-c3ccccc3)CC2)sc1C(=O)N(C)CCCN(C)C(=O)CO[C@H]1Cc2ccccc2C12CCN(CC[C@@]1(c3ccc(F)cc3)CN(C(=O)c3cc(C(F)(F)F)cc(C(F)(F)F)c3)CO1)CC2 [Example 106, 1-{2-[{6-[{5-[{3-[({[(2S)-1′-{2-[(5R)-3-[3,5-Bis(trifluoromethyl)benzoyl]-5-(4-fluorophenyl)-1,3-oxazolidin-5-yl]ethyl}-2,3-dihydrospiro[indene-1,4′-piperidin]-2-yl]oxy}acetyl)(methyl)amino]propyl}(methyl)carbamoyl]-4-methyl-1,3-thiazol-2-yl}(methyl)amino]hexanoyl}(methyl)amino]ethyl}piperidin-4-yl biphenyl-2-ylcarbamate trihydrochloride] | 3.1 nM |  |  |  | 0.34 nM | 1.3 nM |
